# From US8350042B2, “Antiviral compounds for the treatment of HCV infection” (The Regents of the University of California, priority 2008, dated 2013)
# System: BM4-5 FEO replicon (genotype 1b HCV)
# Assay: HCV replicon assay
# Conditions: cells stably expressing BM4-5 FEO replicon, 48 hours incubation
# Protocol: HCV replicon assays were used to measure compound activity in cells. The impact of compounds on HCV replicon replication was assessed, using a method that was previously described (ref.: Wyles, D. L., Kaihara, K. A., Vaida, F. & Schooley, R. T. Synergy of small molecular inhibitors of hepatitis C virus replication directed at multiple viral targets. J Virol 81, 3005-8 (2007).) in cells stably expressing the BM4-5 FEO replicon in 96-well plates (10,000 cells/well). […] For testing the effect of compounds on the HCV replicon cells were incubated with compound for 48 hours and the results expressed as the mean (±SEM) of the relative light units for each condition. A sigmoidal dose response curve was then fitted to the data using Prism4.0 (GraphPad Software).
smiles,measurement,value
CC(=O)c1ccc(C(=O)N[C@@H](CCCCN)C(=O)N2C[C@H](N)C[C@H](N)C2)cc1 [Formula III],Inhibition of HCV in a subgenomic replicon,inhibition of HCV
